Experimental data taken from paper PMC7495477, “IMPROvER: the Integral Membrane Protein Stability Selector” (Scientific Reports, 2020).

Target: T1, ClPPase (membrane-bound pyrophosphatase from Clostridium leptum) ([Clostridium] leptum, UniProt A7VNH8)
T1 construct: gene hppA; N-terminal 8xHis-tag, superfolder GFP and TEV site kept; synthetic gene in pDDGFP; expressed in S. cerevisiae FGY217 membranes; about 700 residues; dimer
T1 sequence (A7VNH8 1-700): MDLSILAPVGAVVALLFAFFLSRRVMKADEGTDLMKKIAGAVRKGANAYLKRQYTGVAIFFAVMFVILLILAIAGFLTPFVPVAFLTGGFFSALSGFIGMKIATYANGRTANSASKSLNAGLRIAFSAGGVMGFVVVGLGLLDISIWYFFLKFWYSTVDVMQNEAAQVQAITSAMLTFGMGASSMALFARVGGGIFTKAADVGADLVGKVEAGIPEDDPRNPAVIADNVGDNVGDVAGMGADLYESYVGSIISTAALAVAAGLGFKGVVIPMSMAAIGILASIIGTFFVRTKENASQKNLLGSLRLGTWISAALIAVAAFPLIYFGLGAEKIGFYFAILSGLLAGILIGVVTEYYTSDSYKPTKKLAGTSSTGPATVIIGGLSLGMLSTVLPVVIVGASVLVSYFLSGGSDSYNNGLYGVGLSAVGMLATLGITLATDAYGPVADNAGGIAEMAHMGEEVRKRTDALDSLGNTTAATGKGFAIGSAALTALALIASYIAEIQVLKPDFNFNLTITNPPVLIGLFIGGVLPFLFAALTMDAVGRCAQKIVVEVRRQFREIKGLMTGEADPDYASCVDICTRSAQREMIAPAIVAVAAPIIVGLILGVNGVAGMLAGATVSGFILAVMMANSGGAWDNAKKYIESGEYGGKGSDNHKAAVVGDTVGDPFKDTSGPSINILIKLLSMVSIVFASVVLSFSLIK
Test: colorimetric phosphate release assay on yeast membranes
Format: biochemical
Details: tris-HCl pH 8, MgCl2, KCl, NaCl, NaF, gramicidin, 10 uL of 2 mM tetrabasic sodium pyrophosphate in 50 uL, 30 C, 10 min

SMILES: O=P(O)(O)OP(=O)(O)O [PPi]
- colorimetric phosphate release assay on yeast membranes: The hydrolytic activity of wild-type and variant ClPPase in the membrane was assessed
